# Measured values: US20210205329A1 (The University of North Carolina at Chapel Hill, priority 2018, published 2021)
# Where “and” joins values, the source holds several entries; their conditions need not be identical. Identical values can stand only once.
# System: innately activated TLR4 signal in P rat VTA
# Assay: TLR4 signaling in P rat VTA after systemic neurosteroid (immunoblot, MCP-1 ELISA)
# Assay type: in vivo
# Details: 45 minutes
# Experimental: Immunoblotting for whole VTA lysates was done as previously described (Carlson et al, 2013). Briefly, VTA micropunches (1 mm thick) were lysed with CelLytic MT (dialyzable mild detergent, bicine, and 150 mM NaCl; Sigma-Aldrich) and protease and phosphatase inhibitor cocktail according to the manufacturer's instructions. Total protein was determined by the BCA assay. The proteins (10 μg/lane) were resolved by NuPAGE™ 4-12% Bis-Tris Midi Protein Gel (Thermo Fisher, Waltham, Mass.) electrophoresis and transferred using the iBlot 2 Dry Blotting System (Thermo Fisher, Waltham, Mass.). Blots were then exposed to an antibody for β-actin for normalization. Proteins were detected with enhanced chemilumenescence (GE Healthcare, Amersham, UK). Membranes were exposed to film under non-saturating conditions. Densitometric analysis was conducted using NIH Image 1.57.
# Animals. Selectively bred, but alcohol naïve Alcohol-preferring (P) rats (male, 3-4 months old; 250-550 g) (n=7-9/group) were obtained from the Alcohol Research Center, Indiana University School of Medicine, Animals were double housed in Plexiglas cages containing corn cob bedding and food and water was available ad libitum. The colony room was maintained on a normal 12 hr light-dark cycle (light onset at 0700 hr). Procedures followed National Institutes of Health Guidelines under UNC institutional Animal Care and Use Committee approved protocols at University of North Carolina School of Medicine. Rats were habituated to handling for 7 days prior to administration of 3α,5α-THP (15 mg/kg, IP), pregnenolone (75 mg/kg, IP), 3α,5α-THDOC (15 mg/kg, IP), or vehicle (45% w/v 2-hydroxypropyl-p-cyclodextrin) and returned to their home cage. Rats were sacrificed after 45 minutes and the brain was removed and frozen at −80° C. until VTA micropunches were collected from 1 mm cryostat brain sections. This time point was selected because 3α,5α-THP is rapidly metabolized in vivo (Purdy et al, 1990), but has behavioral and pharmacological activity at this time point (Crawley et al, 1986).
# ELISA. Brain tissue micropunches were lysed with Cellyte MT and the extracts were assayed for protein content by the BCA procedure (Pierce) and for MCP-1 using the rat MCP-1 ELISA kit (Raybiotech—ERC-MCP-1-CL; Norcross, Ga., USA) or for fracktalkine using the rat fractalkine ELISA kit (Raybiotech—ERC-CX3CL1-CL; Norcross, Ga., USA) as per manufacturer's instructions.
# Since the neurosteroids inhibited the TLR4 activation signal in cultured macrophage cells, experiments were conducted to determine whether this also occurs in the brain. Selectively bred P rats that have an innately activated TLR4 signal in the VTA (Liu J, et al. (2011). Proc Natl Acad Sci USA 108(11): 4465-4470), were administered 3α,5α-THP (15 mg/kg, IP) or pregnenolone (75 mg/kg, IP), sacrificed after 45 minutes and examined for TLR4 signaling using parallel measures. […] 3α,5α-THP administration reduced the levels of MCP-1 by 20±9% (p<0.05), TRAF6 by 19±3% (p<0.0001), and CRF by 28±9% (p<0.01), with no effect on TLR4 protein expression (FIG. 4A). Pregnenolone administration had no effect on TRAF6, CRF, or TLR4.
SMILES,"effect on TLR4 protein expression in VTA (15 mg/kg IP, P rats)","reduction of CRF levels in VTA (15 mg/kg IP, male P rats)","reduction of TRAF6 levels in VTA (15 mg/kg IP, male P rats)","reduction of MCP-1 levels in VTA (15 mg/kg IP, male P rats, ELISA)","effect on CRF in VTA (75 mg/kg IP, P rats)","effect on TLR4 in VTA (75 mg/kg IP, P rats)","effect on TRAF6 in VTA (75 mg/kg IP, P rats)"
"CC(=O)[C@H]1CC[C@H]2[C@@H]3CC[C@H]4C[C@H](O)CC[C@]4(C)[C@H]3CC[C@]12C [3α,5α-THP, (3α,5α)3-hydroxypregnan-20-one]",no effect,28±9% and ~30%,19±3% and ~20%,20±9% and ~20%,–,–,–
CC(=O)[C@H]1CC[C@H]2[C@@H]3CC=C4C[C@@H](O)CC[C@]4(C)[C@H]3CC[C@]12C [pregnenolone],–,–,–,–,no effect,no effect,no effect
